Assay results from PMC8761492 (Life Science Alliance, 2022).
Several values for one entry are separate records, joined by “and”; a condition that tells them apart may be missing. Equal values may be shown once. Read-outs that look alike come from different tables or passages of the source. Starred links: 1 amine or outer side, 2 acyl side, 3 side chain; linkers in the order of their positions; H or OH if unused. Positions of bridges follow the written chain, without caps; N, C: chain ends. Non-standard residues stand in square brackets, D forms with d. Residues, ends and D or L forms follow the SMILES beside them. *: point of attachment. X1 = CC[C@H](C)[C@@H](N[*:1])[C@@H](O)CC(=O)O[C@H](C(=O)[C@H](C)C(=O)[*:2])C(C)C; NMeY = CN[C@@H](Cc1ccc(O)cc1)C(=O)O; dNMeL = CN[C@H](CC(C)C)C(=O)O; Pyruvoyl = CC(=O)C(=O)*

Experiments:
[1] = test system: HCoV-229E-GFP virus; assay: microbe, parasite or virus in culture; format: cell-based, human coronavirus 229E; conditions: Huh-7 cells
[2] = Drug-induced cytotoxicity in Vero E6 cells in the absence of virus; format: cell-based; conditions: monkey, Vero E6 cells (ATCC CRL-1586), uninfected, Vero E6 cells without virus
[3] = test system: SARS-CoV-2 B.1.1.7; assay: microbe, parasite or virus in culture; format: cell-based; conditions: 24 h, mean ± SEM
[4] = test system: SARS-CoV-2 (βCoV/KOR/KCDC03/2020); assay: microbe, parasite or virus in culture; format: cell-based; conditions: Severe acute respiratory syndrome coronavirus 2, Vero
[5] = Plasma protein binding by equilibrium dialysis, human plasma; format: in vitro ADME; conditions: male, human; for recovery at 100 ng/mL / fraction unbound at 5 h, 100 ng/mL: nominal 100 ng/mL; for recovery at 500 ng/mL / fraction unbound at 5 h, 500 ng/mL: nominal 500 ng/mL
Method: (§1) The binding of plitidepsin to plasma proteins was determined in vitro at three concentrations (100, 250 and 500 ng/ml) in male rat, dog and human plasma ([53]).
(§2) Rat (CD), beagle dog, and human blood was collected at Aptuit Srl from at least three male donors, and plasma prepared by centrifuging blood at 2,000g, 4°C for 10 min. Human plasma was obtained from healthy and fasted male volunteers. Na-heparin was used as the anti-coagulant for all species. All plasma was stored at approximately −20°C and thawed only once, on the day of the experiment.
(§3) Plasma protein binding was assessed using Rapid Equilibrium Dialysis plates pre-loaded with equilibrium dialysis membrane inserts (MWCO ∼8 kD).
(§4) Separation of free compound from protein-bound material was achieved by dialysis of the sample through the membrane under appropriate shaking at 37°C. The suitability of equilibrium dialysis as a method for protein binding determination of plitidepsin was assessed.
(§5) Before experimentation, the time required to reach equilibrium was determined in male rat and human plasma at one concentration (250 ng/ml) and six selected time points (2, 3, 4, 5, 6, and 7 h) at 37°C.
(§6) Plitidepsin stability was assessed in plasma (all species) and PBS at two concentrations (100 and 500 ng/ml for plasma; 0.5 and 50 ng/ml for PBS) by comparing plitidepsin concentration in spiked and preincubated plasma before and after incubation at 37°C for 5 h as determined previously.

[6] = test system: plasma proteins; assay: as above; format: in vitro ADME; conditions: for % Bound / % Recovery / % Unbound: single replicates
Method: as §1, §2, §3, §4, §5, §6

[7] = test system: COVID-19; assay: APLICOV-PC: six-point ordinal scale (post hoc); format: in vivo, human; conditions: for 2 Hospital admission, not requiring supplemental oxygen / 3 Hospital admission, requiring supplemental oxygen / 4 Hospital admission, requiring high-flow nasal cannula or non-invasive mechanical ventilation: Day 4
Method: Although not specified in the protocol (so not captured in the CRF), post-hoc analysis was performed to categorize the status of each patient at baseline, on Days 7, 15, 31, and at time of discharge using the following 6-point ordinal scale (Wang et al 2020):
Hospital admission, not requiring supplemental oxygen
Hospital admission, requiring supplemental oxygen
Hospital admission, requiring high-flow nasal cannula or noninvasive mechanical ventilation
Hospital admission, requiring extracorporeal membrane oxygenation or invasive mechanical ventilation
The number and percentage of patients with at least 1-point and at least 2-point improvements from baseline was calculated for Days 7, 15, 31 and date of discharge.

[8] = plasma, single replicates, read-out: % Bound (converted)
[9] = plasma, single replicates, read-out: % Unbound

CC[C@H](C)[C@H]1NC(=O)[C@@H](NC(=O)[C@@H](CC(C)C)N(C)C(=O)[C@@H]2CCCN2C(=O)C(C)=O)[C@@H](C)OC(=O)[C@H](Cc2ccc(OC)cc2)N(C)C(=O)[C@@H]2CCCN2C(=O)[C@H](CC(C)C)NC(=O)[C@@H](C)C(=O)[C@H](C(C)C)OC(=O)C[C@@H]1O [Plitidepsin] (Pyruvoyl-P[dNMeL]T[X1]LP[NMeY](Me); ester 3-C)
concentration of plitidepsin with antiviral effect on HCoV-229E-GFP ([1]; as low as, equals 0.5 nM): ≤ 0.555 µg/L | IC50 ([1]; Human coronavirus 229E, study protocol, read-out: IC50 assumed from the HCoV-229E-GFP experiment): 0.5 nM and 0.000555 µg/mL | CC50 at 3 d [2]: 2900 nM | IC50 ([3]; Severe acute respiratory syndrome coronavirus 2, Caco-2, pretreated 2 h): 6.12 nM | IC50 ([3]; Severe acute respiratory syndrome coronavirus 2, Calu-3, pretreated 2 h): 5.87 nM | IC50 ([4]; Boryung Pharmaceuticals): 3.26 nM | IC90 ([4]; estimated from IC50 and Hill slope): 9.38 nM | fraction unbound ([5]; independent of drug concentration): 0.02 | recovery at 100 ng/mL ([5]; plasma, Mean ± SD): 84.3 ± 6.4% | fraction unbound at 5 h, 100 ng/mL ([5]; plasma, Mean ± SD, read-out: % Unbound): 0.017 ± 0.002 | recovery at 100 ng/mL ([5]; plasma, single replicates): 90.4% | fraction unbound at 5 h, 100 ng/mL [5, 8]: 0.014 | fraction unbound at 5 h, 100 ng/mL [5, 9]: 0.014 | recovery at 250 ng/mL ([5]; plasma, nominal 250 ng/mL, Mean ± SD): 77 ± 17.6% | fraction unbound at 5 h, 250 ng/mL ([5]; plasma, nominal 250 ng/mL, Mean ± SD, read-out: % Bound (converted)): 0.022 | fraction unbound at 5 h, 250 ng/mL ([5]; plasma, nominal 250 ng/mL, Mean ± SD, read-out: % Unbound): 0.022 ± 0.008 | fraction unbound at 5 h, 250 ng/mL ([5]; plasma, nominal 250 ng/mL, single replicates, read-out: % Bound (converted)): 0.03 | fraction unbound at 5 h, 250 ng/mL ([5]; plasma, nominal 250 ng/mL, single replicates, read-out: % Unbound): 0.03 | recovery at 500 ng/mL ([5]; plasma, mean, n=2): 80.4% | fraction unbound at 5 h, 500 ng/mL ([5]; plasma, mean, n=2, read-out: % Bound (converted)): 0.019 | fraction unbound at 5 h, 500 ng/mL ([5]; plasma, mean, n=2, read-out: % Unbound): 0.019 | recovery at 500 ng/mL ([5]; plasma, single replicates): 82% | fraction unbound at 5 h, 500 ng/mL [5, 8]: 0.019 | fraction unbound at 5 h, 500 ng/mL [5, 9]: 0.019 | fraction unbound at 100 ng/mL ([6]; male, human, plasma, nominal 100 ng/mL, Mean ± SD, read-out: % Bound (converted)): 0.017 | % Bound ([6]; nominal 100 ng/mL): 98.3% and 98.2% | % Recovery ([6]; nominal 100 ng/mL): 84.7% and 77.7% | % Unbound ([6]; nominal 100 ng/mL): 1.7% and 1.8% | % Bound ([6]; nominal 250 ng/mL): 98.5% and 98% | % Recovery ([6]; nominal 250 ng/mL): 56.7% and 87.3% and 87% | % Unbound ([6]; nominal 250 ng/mL): 1.5% and 2% | % Bound ([6]; nominal 500 ng/mL): 98% | % Recovery ([6]; nominal 500 ng/mL): 78.8% | % Unbound ([6]; nominal 500 ng/mL): 2% | 2 Hospital admission, not requiring supplemental oxygen ([7]; 1.5 mg (N=14)): 28.6% | 3 Hospital admission, requiring supplemental oxygen ([7]; 1.5 mg (N=14)): 57.1% | 4 Hospital admission, requiring high-flow nasal cannula or non-invasive mechanical ventilation ([7]; 1.5 mg (N=14)): 14.3% | 2 Hospital admission, not requiring supplemental oxygen ([7]; 2 mg (N=15)): 40% | 3 Hospital admission, requiring supplemental oxygen ([7]; 2 mg (N=15)): 60% | 2 Hospital admission, not requiring supplemental oxygen ([7]; 2.5 mg (N=15)): 33.3% | 3 Hospital admission, requiring supplemental oxygen ([7]; 2.5 mg (N=15)): 66.7% | 2 Hospital admission, not requiring supplemental oxygen ([7]; Total (N=44)): 34.1% | 3 Hospital admission, requiring supplemental oxygen ([7]; Total (N=44)): 61.4% | 4 Hospital admission, requiring high-flow nasal cannula or non-invasive mechanical ventilation ([7]; Total (N=44)): 4.5% | 1 Discharged (Alive) ([7]; Day 7, 1.5 mg (N=14)): 21.4%
